Test results: patent publication US20080261891A1, “COMPOSITIONS AND METHODS FOR USING SYRINGOPEPTIN 25A AND RHAMNOLIPIDS” (Utah State University, priority 2007, published 2008)
In brackets after ≈: the same amount, converted by molar mass. Read-outs that look alike come from different tables or passages of the source. Where a SMILES comes first, the peptide text is derived from it. Bridges are numbered along the chain shown (N, C = ends). [ ]: non-standard residue; d: D form. The star is where a group is joined. ξ: configuration not given here. Decanoyl(3ξ-OH) = CCCCCCCC(O)CC(=O)*; Dab = NCC[CH](N)C(=O)O; Dhb = C/C=C(\N)C(=O)O

Assays:
[1] = system: selected human cancer cell lines;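 further: MTT dye viability readout in semi-confluent cancer cells, compound exposure 1-24 hours, MTT then 4 hours at 37 °C, compared against untreated negative control wells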
Protocol: Cancer cell assays can be performed using the MTT dye protocol. Viability of cells may be determined by the dye response. In the following procedure, approximately 1.5×10^4 cells per well can be added and viability may be determined with the cells in a semi-confluent state. The assay can be performed in a 96-well microtiter plate using a New Brunswick Cell Counter. After addition of the compound or compounds of the present invention, the plate may incubate for 1-24 hours. MTT may be added to each well including negative control wells untreated with the compounds of the present invention. The plate would then be incubated at 37° C. for 4 hours. The liquid contents of each well can then be removed, and isopropanol with 0.1 M HCl would then be added to each well. The plate can be sealed with parafilm to prevent evaporation of the isopropanol. The plate would then be allowed to sit for approximately 5-10 minutes in order to solubilize the precipitate. Purified water would then be added to each well.

[2] = system: Lactobacillus acidophilus; test: MIC, microbroth dilution method; type: cell-based; settings: 48 h
Protocol: (§1) The MIC of the compounds for the organisms was determined by the microbroth dilution method, described hereafter. The microorganisms were prepared as described above and resuspended in their optimal growth media (Table 1) to ˜10^5 CFU/mL containing SP 25A at 2, 3, 4, 5, 6, 7, 8, 16, 32 and 50 μg/mL in a total volume of 550 μL. RL concentrations of 2, 3, 4, 5, 6, 7, 8, 16, 32 and 60 μg/mL in a total volume of 550 μL were tested in a 48-well plate (Corning, N.Y.). The plates were incubated at optimal growth conditions for the respective organism and monitored for an increase in OD600 after 48 h by a Perkin-Elmer (HTS 7000) plate reader (Downers Grove, Ill.). […] Negative controls (no inhibition of growth) were included using saline in the assay for each compound. The lowest concentration at which there was no increase in OD over 48 h was reported as the MIC. Each MIC was determined in replicate with three separate tests per replication. The results of the three tests were averaged for each replicate.

[3] = system: Lactobacillus plantarum; test: MIC, microbroth dilution method; type: cell-based; settings: 48 h
Protocol: as §1

[4] = system: Lactococcus lactis subsp. Lactis; test: MIC, microbroth dilution method; type: cell-based; settings: 48 h
Protocol: as §1

[5] = system: Citrobacter fruendii; test: MIC, microbroth dilution method; type: cell-based; settings: 48 h
Protocol: as §1

[6] = system: Salmonella enteridis; test: MIC, microbroth dilution method; type: cell-based; settings: 48 h
Protocol: as §1

[7] = system: Streptococcus mutans; test: MIC, microbroth dilution method; type: cell-based; settings: 48 h
Protocol: as §1

[8] = system: Bacillus cereus; test: MIC, microbroth dilution method; type: cell-based; settings: 48 h
Protocol: as §1

[9] = system: Erwinia herbicola; test: MIC, microbroth dilution method; type: cell-based; settings: 48 h
Protocol: as §1

[10] = system: Clostridium sporogenes; test: MIC, microbroth dilution method; type: cell-based; settings: 48 h
Protocol: as §1

[11] = system: Listeria monocytogenes; test: MIC, microbroth dilution method; type: cell-based; settings: 48 h
Protocol: as §1

[12] = system: Aeromonas caviae; test: MIC, microbroth dilution method; type: cell-based; settings: 48 h
Protocol: as §1

[13] = system: Salmonella typhimurium; test: MIC, microbroth dilution method; type: cell-based; settings: 48 h
Protocol: as §1

[14] = system: Streptococcus suis; test: MIC, microbroth dilution method; type: cell-based; settings: 48 h
Protocol: as §1

[15] = system: Bacillus subtilis; test: MIC, microbroth dilution method; type: cell-based; settings: 48 h
Protocol: as §1

[16] = system: Micrococcus luteus; test: MIC, microbroth dilution method; type: cell-based; settings: 48 h
Protocol: as §1

[17] = system: Clostridium sporogenes (spores); test: MIC, microbroth dilution method (spore germination); type: cell-based; settings: inhibition of spore germination, 48 h
Protocol: as §1

[18] = system: Bacillus subtilis (spores); test: as above; type: cell-based; settings: inhibition of spore germination, 48 h
Protocol: as §1

[19] = system: Enterococcus faecalis; type: cell-based; settings: Enterococcus faecalis (multiple drug resistant); 48 h
Protocol: (§2) In order to determine the antimicrobial efficacy of RLs and SPs they were tested against several bacterial strains, some with multiple drug resistance. The multiple drug resistant bacterial strains used were E. faecalis and S. aureus. […] A combination of RLs and SPs were tested against L. monocytogenes.
as §1

[20] = system: Staphylococcus aureus subsp. aureus; type: cell-based; settings: Staphylococcus aureus subsp. aureus (multiple drug resistant); 48 h
Protocol: as §2, §1

[21] = system: Mycobacterium smegmatis; type: cell-based

## C/C=C(\NC(=O)C(C)NC(=O)C(C)NC(=O)C(CC(C)C)NC(=O)C(NC(=O)C(C)NC(=O)C(C)NC(=O)C(NC(=O)C1CCCN1C(=O)/C(=C/C)NC(=O)CC(O)CCCCCCC)C(C)C)C(C)C)C(=O)NC(C(=O)N/C(=C\C)C(=O)NC(C)C(=O)NC(C(=O)NC(C)C(=O)NC(C)C(=O)N/C(=C\C)C(=O)NC1C(=O)NC(CO)C(=O)NC(C)C(=O)NC(C(C)C)C(=O)NC(C)C(=O)NC(CCN)C(=O)NC(CCN)C(=O)NC(Cc2ccc(O)cc2)C(=O)OC1C)C(C)C)C(C)C (stereo not shown) [SP 25A, syringopeptin 25A] ({Decanoyl(3ξ-OH)}-[Dhb]PVAAVLAA[Dhb]V[Dhb]AVAA[Dhb]TSAVA[Dab][Dab]Y; ester 18-C; configuration not given here)
[1]; Bone (U2OS)
  IC50: 101.47 µg/mL (≈ 42.3 µM)
[1]; Bone (U2OS), 1.00 ug/ml
  % cytotoxicity: −10.06%
[1]; Bone (U2OS), 2.50 ug/ml
  % cytotoxicity: −3.64%
[1]; Bone (U2OS), 5.00 ug/ml
  % cytotoxicity: 1.69%
[1]; Bone (U2OS), 10.00 ug/ml
  % cytotoxicity: 4.93%
[1]; Breast (MCF-7)
  IC50: 30.27 µg/mL (≈ 12.6 µM)
[1]; Breast (MCF-7), 1.00 ug/ml
  % cytotoxicity: −20.40%
[1]; Breast (MCF-7), 2.50 ug/ml
  % cytotoxicity: −1.12%
[1]; Breast (MCF-7), 5.00 ug/ml
  % cytotoxicity: 1.76%
[1]; Breast (MCF-7), 10.00 ug/ml
  % cytotoxicity: 16.52%
[1]; Breast (MDA-MB231)
  IC50: 10.14 µg/mL (≈ 4.23 µM)
[1]; Breast (MDA-MB231), 1.00 ug/ml
  % cytotoxicity: −12.40%
[1]; Breast (MDA-MB231), 2.50 ug/ml
  % cytotoxicity: 9.23%
[1]; Breast (MDA-MB231), 5.00 ug/ml
  % cytotoxicity: 21.98%
[1]; Breast (MDA-MB231), 10.00 ug/ml
  % cytotoxicity: 49.30%
[1]; Breast (MDA-MB435)
  IC50: 6.25 µg/mL (≈ 2.6 µM)
[1]; Breast (MDA-MB435), 1.00 ug/ml
  % cytotoxicity: 20.78%
[1]; Breast (MDA-MB435), 2.50 ug/ml
  % cytotoxicity: −5.22%
[1]; Breast (MDA-MB435), 5.00 ug/ml
  % cytotoxicity: 18.84%
[1]; Breast (MDA-MB435), 10.00 ug/ml
  % cytotoxicity: 79.98%
[1]; Cervical (HeLa)
  IC50: 25.50 µg/mL (≈ 10.6 µM)
[1]; Cervical (HeLa), 1.00 ug/ml
  % cytotoxicity: 1.68%
[1]; Cervical (HeLa), 2.50 ug/ml
  % cytotoxicity: 3.50%
[1]; Cervical (HeLa), 5.00 ug/ml
  % cytotoxicity: 1.08%
[1]; Cervical (HeLa), 10.00 ug/ml
  % cytotoxicity: 19.61%
[1]; Colon (HT29)
  IC50: 29.72 µg/mL (≈ 12.4 µM)
[1]; Colon (HT29), 1.00 ug/ml
  % cytotoxicity: 8.89%
[1]; Colon (HT29), 2.50 ug/ml
  % cytotoxicity: 23.85%
[1]; Colon (HT29), 5.00 ug/ml
  % cytotoxicity: 24.59%
[1]; Colon (HT29), 10.00 ug/ml
  % cytotoxicity: 16.83%
[1]; Lung (A549)
  IC50: 11.41 µg/mL (≈ 4.75 µM)
[1]; Lung (A549), 1.00 ug/ml
  % cytotoxicity: 15.66%
[1]; Lung (A549), 2.50 ug/ml
  % cytotoxicity: 13.51%
[1]; Lung (A549), 5.00 ug/ml
  % cytotoxicity: 41.14%
[1]; Lung (A549), 10.00 ug/ml
  % cytotoxicity: 43.82%
[1]; Ovarian (OVCAR3)
  IC50: 19.75 µg/mL (≈ 8.23 µM)
[1]; Ovarian (OVCAR3), 1.00 ug/ml
  % cytotoxicity: 6.42%
[1]; Ovarian (OVCAR3), 2.50 ug/ml
  % cytotoxicity: 16.30%
[1]; Ovarian (OVCAR3), 5.00 ug/ml
  % cytotoxicity: 16.41%
[1]; Ovarian (OVCAR3), 10.00 ug/ml
  % cytotoxicity: 25.31%
[1]; Prostate (DU145)
  IC50: 6.56 µg/mL (≈ 2.73 µM)
[1]; Prostate (DU145), 1.00 ug/ml
  % cytotoxicity: 26.92%
[1]; Prostate (DU145), 2.50 ug/ml
  % cytotoxicity: 23.60%
[1]; Prostate (DU145), 5.00 ug/ml
  % cytotoxicity: 45.22%
[1]; Prostate (DU145), 10.00 ug/ml
  % cytotoxicity: 76.25%
[1]; Stomach (AGS)
  IC50: 18.58 µg/mL (≈ 7.74 µM)
[1]; Stomach (AGS), 1.00 ug/ml
  % cytotoxicity: 4.00%
[1]; Stomach (AGS), 2.50 ug/ml
  % cytotoxicity: 13.87%
[1]; Stomach (AGS), 5.00 ug/ml
  % cytotoxicity: 26.88%
[1]; Stomach (AGS), 10.00 ug/ml
  % cytotoxicity: 26.90%
[2]
  MIC: 8 µg/mL (≈ 3.33 µM)
[3]
  MIC: 16 µg/mL (≈ 6.67 µM)
[4]
  MIC: 4 µg/mL (≈ 1.67 µM)
[5]
  MIC: >50 µg/mL
[6]
  MIC: >50 µg/mL
[7]
  MIC: 4 µg/mL (≈ 1.67 µM)
[8]
  MIC: 4 µg/mL (≈ 1.67 µM)
[9]
  MIC: >50 µg/mL
[10]
  MIC: 4 µg/mL (≈ 1.67 µM)
[11]
  MIC: 3 µg/mL (≈ 1.25 µM)
[12]
  MIC: >50 µg/mL
[13]
  MIC: >50 µg/mL
[14]
  MIC: 4 µg/mL (≈ 1.67 µM)
[15]
  MIC: 4 µg/mL (≈ 1.67 µM)
[16]
  MIC: 4 µg/mL (≈ 1.67 µM)
[17]
  MIC: 4 µg/mL (≈ 1.67 µM)
[18]
  MIC: 4 µg/mL (≈ 1.67 µM)
[19]
  MIC: 8 µg/mL
[20]
  MIC: 8 µg/mL
[21]
  MIC: 4 µg/mL (≈ 1.67 µM)
